This note sets out measurements from patent publication US20260158017A1, “KIF18A INHIBITOR” (WIGEN BIOMEDICINE TECHNOLOGY (SHANGHAI) CO., LTD., priority 2021, published 2026).

Where only a bound is given, the exact number is not on record here.

For this assay, the target named is T1, Recombinant human KIF18A (1-467His-tagged) protein (Homo sapiens, UniProt Q8NI77).
T1 construct: Recombinant human KIF18A (1-467His-tagged) protein; His; made in house
T1 sequence (Q8NI77 1-467): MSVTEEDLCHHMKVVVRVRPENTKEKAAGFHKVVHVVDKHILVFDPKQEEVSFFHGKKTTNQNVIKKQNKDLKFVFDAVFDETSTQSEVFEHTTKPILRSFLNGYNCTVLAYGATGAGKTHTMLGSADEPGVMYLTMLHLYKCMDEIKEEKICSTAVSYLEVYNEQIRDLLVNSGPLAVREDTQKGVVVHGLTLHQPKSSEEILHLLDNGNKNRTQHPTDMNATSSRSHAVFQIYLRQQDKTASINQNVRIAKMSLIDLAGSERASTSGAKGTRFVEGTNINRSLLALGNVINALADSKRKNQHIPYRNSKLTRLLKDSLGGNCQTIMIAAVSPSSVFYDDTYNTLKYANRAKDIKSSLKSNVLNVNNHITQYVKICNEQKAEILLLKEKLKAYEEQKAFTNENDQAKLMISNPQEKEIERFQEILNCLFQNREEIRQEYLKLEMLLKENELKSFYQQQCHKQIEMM
T1 sequence (P02550 whole entry partner): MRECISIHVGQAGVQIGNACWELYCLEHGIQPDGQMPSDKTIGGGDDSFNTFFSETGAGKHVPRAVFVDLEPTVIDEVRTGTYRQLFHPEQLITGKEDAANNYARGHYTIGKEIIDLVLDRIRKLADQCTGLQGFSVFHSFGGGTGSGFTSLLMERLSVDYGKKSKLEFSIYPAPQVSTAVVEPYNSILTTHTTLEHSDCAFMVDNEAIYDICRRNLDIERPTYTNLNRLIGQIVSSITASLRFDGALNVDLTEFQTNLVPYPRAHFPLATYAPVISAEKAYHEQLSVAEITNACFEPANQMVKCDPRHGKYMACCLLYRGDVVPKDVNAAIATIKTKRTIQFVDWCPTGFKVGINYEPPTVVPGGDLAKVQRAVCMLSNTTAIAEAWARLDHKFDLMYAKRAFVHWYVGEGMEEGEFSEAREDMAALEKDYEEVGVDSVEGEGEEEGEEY
T1 sequence (P02554 whole entry partner): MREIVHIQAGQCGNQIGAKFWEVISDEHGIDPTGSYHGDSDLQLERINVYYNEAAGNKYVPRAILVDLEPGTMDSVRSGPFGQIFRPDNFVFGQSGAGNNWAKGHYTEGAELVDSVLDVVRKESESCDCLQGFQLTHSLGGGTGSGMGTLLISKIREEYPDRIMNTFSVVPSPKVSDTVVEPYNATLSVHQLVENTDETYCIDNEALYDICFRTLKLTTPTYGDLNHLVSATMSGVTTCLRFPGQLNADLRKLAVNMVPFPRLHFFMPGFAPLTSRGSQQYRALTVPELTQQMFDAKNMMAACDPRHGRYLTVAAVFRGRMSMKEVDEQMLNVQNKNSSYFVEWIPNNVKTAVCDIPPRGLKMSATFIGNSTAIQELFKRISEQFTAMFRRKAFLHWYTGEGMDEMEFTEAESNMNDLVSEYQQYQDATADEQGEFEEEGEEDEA
Description: KIF18A enzyme assay (microtubule-stimulated ATPase activity, ADP-Glo). The assay is classed as biochemical. The settings on record: 30 nM KIF18A, 75 μM ATP, 30 μg/mL pig microtubules; read-out: Inhibitory activity against KIF18A IC50. The gist of the method:
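Buffer 15 mM Tris pH 7.5, 10 mM MgCl2, 0.01% Pluronic F-68, 1 μM paclitaxel, 30 μg/mL pig microtubules; reactions at room temperature. IC50 from inhibition relative to DMSO.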
Consider `O=C(Nc1ccc(OCF)c(N2CC3CC3C2)c1)c1ccc(S(=O)(=O)NCCO)cc1N1CCC2(CC1)CC2` (stereo not shown) [Compound 410], for which the IC50 was at most 100 nM. Under `CC(C)(CO)Nc1cc(NC(=O)c2ccc(S(=O)(=O)NCCO)cc2N2CCC3(CC2)CC3)ccc1OCF` [Compound 411] stands at most 100 nM. Next, `O=C(Nc1ccc(OCF)c(N2CCOCC2)c1)c1ccc(S(=O)(=O)NCCO)cc1N1CCC2(CC1)CC2` [Compound 412]: at most 100 nM. As for `C[C@@H](CO)S(=O)(=O)Nc1ccc(C(=O)Nc2ccc(OCF)c(N3CCC(F)(F)CC3)c2)c(N2CCC3(CC2)CC3)c1` [Compound 413], the IC50 is at most 100 nM. Under `C[C@H](CO)NS(=O)(=O)c1ccc(C(=O)Nc2ccc(OCF)c(N3CCC(F)(F)CC3)c2)c(N2CCC3(CC2)CC3)c1` [Compound 414] stands at most 100 nM; under `C[C@@H]1CN(c2cc(NC(=O)c3ccc(S(=O)(=O)N[C@@H](C)CO)cc3N3CCC4(CC3)CC4)ccc2OCF)CCO1` [Compound 415], at most 100 nM. In the case of `C[C@H](CO)NS(=O)(=O)c1ccc(C(=O)Nc2ccc(OCF)c(N3CCO[C@H](C)C3)c2)c(N2CCC3(CC2)CC3)c1` [Compound 416], the IC50 is at most 100 nM. Consider `O=C(Nc1ccc(OCF)c(N2CCC(F)(F)CC2)n1)c1ccc(NS(=O)(=O)CCO)cc1N1CCC2(CC1)CC2` [Compound 417], for which the IC50 is at most 100 nM. With `C[C@@H]1CN(c2nc(NC(=O)c3ccc(NS(=O)(=O)CCO)cc3N3CCC4(CC3)CC4)ccc2OCF)CCO1` [Compound 418], the IC50 is at most 100 nM. Next, `C[C@H]1CN(c2nc(NC(=O)c3ccc(NS(=O)(=O)CCO)cc3N3CCC4(CC3)CC4)ccc2OCF)CCO1` [Compound 419]: at most 100 nM; `O=C(Nc1ccc(OCF)c(N2CC(F)(F)C2)n1)c1ccc(NS(=O)(=O)CCO)cc1N1CCC2(CC1)CC2` [Compound 420]: at most 100 nM. Next, `O=C(Nc1ccc(OCF)c(OCCC(F)(F)F)n1)c1ccc(NS(=O)(=O)CCO)cc1N1CCC2(CC1)CC2` [Compound 421]: at most 100 nM. Under `O=C(Nc1ccc(OCF)c(N2CCC3(CC3)C2)n1)c1ccc(NS(=O)(=O)CCO)cc1N1CCC2(CC1)CC2` [Compound 422] stands at most 100 nM; under `O=C(Nc1ccc(OCF)c(OC2CCC2)n1)c1ccc(NS(=O)(=O)CCO)cc1N1CCC2(CC1)CC2` [Compound 423], at most 100 nM; under `CC1(F)CCN(c2nc(NC(=O)c3ccc(NS(=O)(=O)CCO)cc3N3CCC4(CC3)CC4)ccc2OCF)C1` (stereo not shown) [Compound 424], at most 100 nM. Take `O=C(Nc1ccc(OCF)c(N2CCC(F)CC2)n1)c1ccc(NS(=O)(=O)CCO)cc1N1CCC2(CC1)CC2` [Compound 425]: the IC50 was at most 100 nM. `O=C(Nc1ccc(OCF)c(N2CC3CC3C2)n1)c1ccc(NS(=O)(=O)CCO)cc1N1CCC2(CC1)CC2` (stereo not shown) [Compound 426]: the IC50 is at most 100 nM. Next, `CC(C)(CO)Nc1nc(NC(=O)c2ccc(NS(=O)(=O)CCO)cc2N2CCC3(CC2)CC3)ccc1OCF` [Compound 427]: at most 100 nM; `O=C(Nc1ccc(OCF)c(N2CCOCC2)n1)c1ccc(NS(=O)(=O)CCO)cc1N1CCC2(CC1)CC2` [Compound 428]: at most 100 nM. Next, `C[C@@H](CO)S(=O)(=O)Nc1ccc(C(=O)Nc2ccc(OCF)c(N3CCC(F)(F)CC3)n2)c(N2CCC3(CC2)CC3)c1` [Compound 429]: at most 100 nM; `C[C@H](CO)S(=O)(=O)Nc1ccc(C(=O)Nc2ccc(OCF)c(N3CCC(F)(F)CC3)n2)c(N2CCC3(CC2)CC3)c1` [Compound 430]: at most 100 nM. Turning to `C[C@@H]1CN(c2nc(NC(=O)c3ccc(NS(=O)(=O)[C@@H](C)CO)cc3N3CCC4(CC3)CC4)ccc2OCF)CCO1` [Compound 431], the IC50 is at most 100 nM. Under `C[C@@H]1CN(c2nc(NC(=O)c3ccc(NS(=O)(=O)[C@H](C)CO)cc3N3CCC4(CC3)CC4)ccc2OCF)CCO1` [Compound 432] stands at most 100 nM; under `O=C(Nc1ccc(OCF)c(N2CCC(F)(F)CC2)n1)c1ccc(S(=O)(=O)NCCO)cc1N1CCC2(CC1)CC2` [Compound 433], at most 100 nM; under `C[C@@H]1CN(c2nc(NC(=O)c3ccc(S(=O)(=O)NCCO)cc3N3CCC4(CC3)CC4)ccc2OCF)CCO1` [Compound 434], at most 100 nM. Under `C[C@H]1CN(c2nc(NC(=O)c3ccc(S(=O)(=O)NCCO)cc3N3CCC4(CC3)CC4)ccc2OCF)CCO1` [Compound 435] stands at most 100 nM.

For `O=C(Nc1ccc(OCF)c(N2CC(F)(F)C2)n1)c1ccc(S(=O)(=O)NCCO)cc1N1CCC2(CC1)CC2` [Compound 436], the IC50 was at most 100 nM.

As for `O=C(Nc1ccc(OCF)c(OCCC(F)(F)F)n1)c1ccc(S(=O)(=O)NCCO)cc1N1CCC2(CC1)CC2` [Compound 437], the IC50 is at most 100 nM. Turning to `O=C(Nc1ccc(OCF)c(N2CCC3(CC3)C2)n1)c1ccc(S(=O)(=O)NCCO)cc1N1CCC2(CC1)CC2` [Compound 438], the IC50 is at most 100 nM. As for `O=C(Nc1ccc(OCF)c(OC2CCC2)n1)c1ccc(S(=O)(=O)NCCO)cc1N1CCC2(CC1)CC2` [Compound 439], the IC50 is at most 100 nM. Under `CC1(F)CCN(c2nc(NC(=O)c3ccc(S(=O)(=O)NCCO)cc3N3CCC4(CC3)CC4)ccc2OCF)C1` (stereo not shown) [Compound 440] stands at most 100 nM. Take `O=C(Nc1ccc(OCF)c(N2CCC(F)CC2)n1)c1ccc(S(=O)(=O)NCCO)cc1N1CCC2(CC1)CC2` [Compound 441]: the half-inhibitory concentration (IC50) is at most 100 nM. As for `O=C(Nc1ccc(OCF)c(N2CC3CC3C2)n1)c1ccc(S(=O)(=O)NCCO)cc1N1CCC2(CC1)CC2` (stereo not shown) [Compound 442], the IC50 is at most 100 nM. Consider `CC(C)(CO)Nc1nc(NC(=O)c2ccc(S(=O)(=O)NCCO)cc2N2CCC3(CC2)CC3)ccc1OCF` [Compound 443], for which the IC50 was at most 100 nM.

Turning to `O=C(Nc1ccc(OCF)c(N2CCOCC2)n1)c1ccc(S(=O)(=O)NCCO)cc1N1CCC2(CC1)CC2` [Compound 444], the IC50 is at most 100 nM. Under `C[C@@H](CO)NS(=O)(=O)c1ccc(C(=O)Nc2ccc(OCF)c(N3CCC(F)(F)CC3)n2)c(N2CCC3(CC2)CC3)c1` [Compound 445] stands at most 100 nM; under `C[C@H](CO)NS(=O)(=O)c1ccc(C(=O)Nc2ccc(OCF)c(N3CCC(F)(F)CC3)n2)c(N2CCC3(CC2)CC3)c1` [Compound 446], at most 100 nM; under `C[C@@H]1CN(c2nc(NC(=O)c3ccc(S(=O)(=O)N[C@@H](C)CO)cc3N3CCC4(CC3)CC4)ccc2OCF)CCO1` [Compound 447], at most 100 nM. Under `C[C@H](CO)NS(=O)(=O)c1ccc(C(=O)Nc2ccc(OCF)c(N3CCO[C@H](C)C3)n2)c(N2CCC3(CC2)CC3)c1` [Compound 448] stands at most 100 nM; under `O=C(Nc1ccc(OCF)c(N2CCC(F)(F)CC2)c1)c1cnc(NS(=O)(=O)CCO)cc1N1CCC2(CC1)CC2` [Compound 449], at most 100 nM; under `C[C@@H]1CN(c2cc(NC(=O)c3cnc(NS(=O)(=O)CCO)cc3N3CCC4(CC3)CC4)ccc2OCF)CCO1` [Compound 450], at most 100 nM.

For the compound `C[C@H]1CN(c2cc(NC(=O)c3cnc(NS(=O)(=O)CCO)cc3N3CCC4(CC3)CC4)ccc2OCF)CCO1` [Compound 451], the IC50 is at most 100 nM. Under `O=C(Nc1ccc(OCF)c(N2CC(F)(F)C2)c1)c1cnc(NS(=O)(=O)CCO)cc1N1CCC2(CC1)CC2` [Compound 452] stands at most 100 nM.
